Data published in patent US6838084B1, “Cytotoxic T-cell epitopes of the papilloma virus l1-protein and use thereof in diagnosis and therapy” (priority 1999, dated 2005).
Where two headings read alike, the source gives them in different places.

What was measured:
CVLP-specific T cells = test: Peptide-specific TNFα secretion by CVLP-stimulated T cells (WEHI cell/MTT readout); type: cell-based, human; settings: PMBC + 10 μg/ml peptide, overnight, 10 IU/ml IL-2; HLA A2.01-positive donor; FIG. 1
Excerpt: T cells stimulated by specific, antigen-presenting PBLs release TNFα. This induces apoptosis in WEHI cells so that these cells are no longer able to process MTT into a brownish dye. Low absorption means low dye production and thus many apoptotic cells which had thus been exposed to a lot of TNFα so that the corresponding T cells had been stimulated. Thus, stimulation of T cells improves with decreasing absorption at 595 nm for a particular antigen.
Human T cells (4×10^5) of an HLA A2.01-positive donor were stimulated with HPV16 L1ΔC·E71-55 CVLPs at 37° C. for 8 weeks with weekly addition of 1 μg/ml CVLPs, 10^5 irradiated peripheral blood mononuclear cells (PMBCs) and 10 IU/ml IL-2, and harvested.
The cells were stimulated in 100 μl of medium at 37° C. overnight with different antigens (PMBC+E7 peptide; PMBC+HPV16 L1αC·E71-55 (CVLP); PMBC+5104, 5105, 5106, 5107, 5108, 5109, 5112, 5113, 10 μg/ml each) in the presence of 10 IU/ml IL-2. During this time, stimulated cells produce TNFα.
The following day, 50 μl of supernatant were removed, frozen, thawed again (in order to destroy possibly coremoved cells) and added to 50 μl of a cell suspension containing 0.9×10^6 WEHI cells, 2 μg/ml actinomycin D and 400 mM LiCl. The cells were incubated at 37° C. for 24 h. During this time, TNFα (if present in the supernatant) induces apoptosis of WEHI cells. Addition of 50 μl of a 2.5 mg/ml MTT solution in PBS stained non-apoptotic cells brown within three hours, whereas apoptotic cells remained yellow. All cells were lysed by adding 100 μl of lysis buffer (34% N,N-dimethylformamide, 20% sodium dodecyl sulfate) and incubating at 37° for at least 6 hours so that the dyes were released. Finally, absorption of the solution was measured at 595 nm.
Low absorption means low dye production and thus many apoptotic cells which had thus been exposed to a lot of TNFα so that the corresponding T cells had been stimulated. Thus, T-cell stimulation improved with decreasing absorption at 595 nm.

[1] = target: T1, MHC-1 complexes of T2 cells (Homo sapiens, UniProt P04439, I119V/I121R/I166T/I218V/L300P/L318F/N151K/N90K/P208A/P217A/Q86G/Q94H/R138H/R169H/T345S); type: binding; settings: 0, 10 or 100 μg/ml peptide overnight; BB7.2 antibody, FACS; FIG. 2
T1 construct: The unloaded MHC-1 molecules which are nevertheless present on the cell surface; host or cells: T2 cells

HLA A1 molecules = settings: Kast et al. (1994) Journal of Immunology 152, 3904-3912, cited from earlier work
CVLP-stimulated T cells [2] = test: Restimulation of CVLP-stimulated T cells, HLA A1-positive donor, 20 mer peptides (γ-interferon FACScan); type: cell-based, human; settings: for restimulation of CVLP-stimulated T cells (CD8-positive T cells reactive by γ-interferon expression): PBMCs with 10 μg/ml peptide, HLA A1-positive donor, FIG. 4
Protocol: (§1) The name of the particular peptide with which the PBMCs were loaded is listed from left to right. “None” represents PBMCs which were incubated only with buffer.
(§2) Human T cells (4×10^5) of an HLA A1-positive donor were stimulated with HPV16 L1ΔC·E71-55 CVLPs at 37° C. for 5 weeks with weekly addition of 1 μg/ml CVLPs and 10^5 antigen-presenting cells (irradiated PMBCs), and harvested. The cells were then restimulated in 100 μl of medium at 37° C. with 10 μg/ml of the peptides listed along the X axis of FIG. 4 in the presence of 10 IU/ml IL2. Cells incubated only with buffer served as a negative control.
(§3) After one hour, 1 μl of Monensin (300 μM) was added. The cells were incubated at 37° C. for a further 5 hours. The cells were then fixed and permeabilized, and stained with α-hum CD8/PE, with α-hum CD4/Cychrome and with α-hum γ-interferon/FITC. The cells were examined in a FACScan calibur with respect to their label and the data were analyzed with the aid of Cellquest software.

CVLP-stimulated T cells [3] = test: Restimulation of CVLP-stimulated T cells, non-HLA-classified donor, 20 mer peptides (γ-interferon FACScan); type: cell-based, human; settings: for restimulation of CVLP-stimulated T cells (CD4-positive T cells reactive by γ-interferon expression): PBMCs with 10 μg/ml peptide, non-HLA-classified donor, FIG. 5; for Epitop-Information (epitope type): Table 2
Protocol: as §1
as §2, with “of a non-HLA-classified” for “of an HLA A1-positive”, “for 6” for “for 5”, “FIG. 5” for “FIG. 4”
as §3

CVLP-stimulated T cells [4] = test: Restimulation of CVLP-stimulated T cells, HLA A2.01-positive donor (γ-interferon FACScan); type: cell-based, human; settings: PBMCs incubated with 10 μg/ml antigen, FIG. 3
Protocol: The content of T cell-specific CD3 for each experiment is listed from left to right and the content of human γ interferon which is specific for activated cells is listed from bottom to top.
Human T cells (4×10^5) of an HLA A2.01-positive donor were stimulated with HPV16 LlΔC·E71-55 CVLPs at 37° C. for 8 weeks with weekly addition of 1 μg/ml CVLPs and 10^5 antigen-presenting cells (irradiated PMBCs), and harvested. The cells were then restimulated in 100 μl of medium at 37° C. with 10 μg/ml various antigens in the presence of 10 IU/ml IL2 and 0.5 μg/ml α-human CD28: • a) with CVLP-incubated PBMCs overnight • b) with L1 2022 peptide-incubated PBMCs overnight • c) with L1 2025 peptide (control peptide)incubated PBMCs overnight
as §3, with “Golgi Plug” for “Monensin (300 μM)”, “CD3/PE,” for “CD8/PE,”

CVLP-stimulated T cells [5] = test: Restimulation of CVLP-stimulated T cells with peptide pools, HLA A1-positive donor; type: cell-based, human; settings: common to pools E and 6
Protocol: The name of the particular peptide pool with which the PBMCs were loaded is listed from left to right. “None” represents PBMCs which were incubated only with buffer.
Human T cells (4×10^5) of an HLA A1-positive donor were stimulated with HPV16 L1ΔC·E71-55 CVLPs at 37° C. for 6 weeks with weekly addition of 1 μg/ml CVLPs and 10^5 antigen-presenting cells (irradiated PMBCs), and harvested.
The 20 mer peptides 1 to 51 were combined in peptide pools A to H and 1 to 7 according to the matrix
The T cells of an HLA A1-positive donor were then restimulated in 100 μl of medium at 37° C. with the peptide pools in the presence of 10 IU/ml IL2. In this connection, such amounts of peptide pools were used that for each individual peptide 1 μg/ml was added. Cells incubated only with buffer served as a negative control.
as §3, with “Golgi Plug” for “Monensin (300 μM)”

With “ILEDWNFGL (Human papillomavirus type 16) [Peptide 5112]” the “stimulating CVLP-specific T cells (TNFα secretion, absorption at 595 nm)” value (from here on “stimulating CVLP-specific T cells”) (CVLP-specific T cells) was “capable of stimulating CVLP-specific T cells” and the “MHC molecules on the cell surface of T2 cells (fluorescence), indicating binding to MHC molecules” value (“MHC molecules on the cell surface” below) [1] was “significantly more MHC molecules on the cell surface”.

For “QAEPDRAHYN (Human papillomavirus type 16) [10 mer contained in overlapping peptides 47 and 48]”, the “binding to HLA A1 molecules” value (HLA A1 molecules) is given as “described as HLA A1-binding peptides” and the “binding to HLA A1 molecules” value (HLA A1 molecules; listed as E7 peptide 47/48) is given as “can bind to HLA A1 molecules”.

For “ILVPKVSGL (Human papillomavirus type 16) [Peptide 5104]”, the “stimulating CVLP-specific T cells” value (CVLP-specific T cells) was “capable of stimulating CVLP-specific T cells”.

In the case of “EEDEIDGPAGQAEPDRAHYN (Human papillomavirus type 16) [Peptide 47]”, the “restimulation of CVLP-stimulated T cells (CD8-positive T cells reactive by γ-interferon expression)” value (CVLP-stimulated T cells [2]) is reported as “effected restimulation of CVLP-stimulated T cells”.

In the case of SMVTSDAQIFNKPYWLQRAQ [Peptide 28], the “restimulation of CVLP-stimulated T cells (CD4-positive T cells reactive by γ-interferon expression)” value (CVLP-stimulated T cells [3]) is reported as “effected restimulation of CVLP-stimulated T cells” and the “Epitop-Information (epitope type)” value (CVLP-stimulated T cells [3]) is reported as “T-helper epitope”.

For “GLQYRVFRI (Human papillomavirus type 16) [Peptide 2025]”, the “restimulation of CVLP-stimulated T cells (γ interferon, CD3)” value (CVLP-stimulated T cells [4]) was “not control peptide-incubated PBMCs, effected restimulation”.

With “NLASSNYFPT (Human papillomavirus type 16) [Peptide 2017]” the “MHC molecules on the cell surface” value [1] was “significantly more MHC molecules on the cell surface”.

With “TLTADVMTYI (Human papillomavirus type 16) [Peptide 2018]” the “MHC molecules on the cell surface” value [1] was “significantly more MHC molecules on the cell surface”.

For “YDLQFIFQL (Human papillomavirus type 16) [Peptide 2020]”, the “MHC molecules on the cell surface” value [1] was “significantly more MHC molecules on the cell surface”.

For SLWLPSEATVYL [Peptide 2016], the “MHC molecules on the cell surface” value [1] was “significantly more MHC molecules on the cell surface”.

With ASSNYFPTPSGSMVTSDAQI [Peptide 27] the “restimulation of CVLP-stimulated T cells (CD4-positive T cells reactive by γ-interferon expression)” value (CVLP-stimulated T cells [3]) was “effected restimulation of CVLP-stimulated T cells” and the “Epitop-Information (epitope type)” value (CVLP-stimulated T cells [3]) was “T-helper epitope”.

In the case of “RLVWACVGV (Human papillomavirus type 16) [Peptide 5106]”, the “stimulating CVLP-specific T cells” value (CVLP-specific T cells) is reported as “capable of stimulating CVLP-specific T cells” and the “MHC molecules on the cell surface” value [1] is reported as “significantly more MHC molecules on the cell surface”.

With “AEPDRAHYNIVTFCCXCDST (AEPDRAHYNIVTFCCKCDST; Human papillomavirus type 16) [Peptide 48]” the “restimulation of CVLP-stimulated T cells (CD8-positive T cells reactive by γ-interferon expression)” value (CVLP-stimulated T cells [2]) was “effected restimulation of CVLP-stimulated T cells”.

With “TLQANKSEV (Human papillomavirus type 16) [Peptide 5109]” the “stimulating CVLP-specific T cells” value (CVLP-specific T cells) was “capable of stimulating CVLP-specific T cells” and the “MHC molecules on the cell surface” value [1] was “significantly more MHC molecules on the cell surface”.

For “MLDLQPETTDLYCYEQLNDS (Human papillomavirus type 16) [Peptide 45]”, the “peptide responsible for restimulation, deduced from pool matrix” value (CVLP-stimulated T cells [5]) was “in all probability responsible for restimulation of CVLP-stimulated T cells”.

In the case of “YLPPVPVSKV (Human papillomavirus type 16) [Peptide 2019]”, the “MHC molecules on the cell surface” value [1] is reported as “significantly more MHC molecules on the cell surface”.

For “YLRREQMFV (Human papillomavirus type 16) [Peptide 5108]”, the “stimulating CVLP-specific T cells” value (CVLP-specific T cells) was “capable of stimulating CVLP-specific T cells”.

For “HLFNRAGTV (Human papillomavirus type 16) [Peptide 5107]”, the “stimulating CVLP-specific T cells” value (CVLP-specific T cells) was “capable of stimulating CVLP-specific T cells” and the “MHC molecules on the cell surface” value [1] was “significantly more MHC molecules on the cell surface”.

In the case of “ETTDLYCY (Human papillomavirus type 16) [peptide contained in peptide 45]”, the “binding to HLA A1 molecules” value (HLA A1 molecules) is given as “described as HLA A1-binding peptide” and the “binding to HLA A1 molecules” value (HLA A1 molecules; listed as E7 peptide 45) is given as “can bind to HLA A1 molecules”.

With “ICWGNQLFV (Human papillomavirus type 16) [Peptide 2022]” the “MHC molecules on the cell surface” value [1] was “significantly more MHC molecules on the cell surface” and the “restimulation of CVLP-stimulated T cells (γ interferon, CD3)” value (CVLP-stimulated T cells [4]) was “effected restimulation of CVLP-stimulated T cells”.

For “MHGDTPTLH (Human papillomavirus type 16) [9 mer contained in peptide 43]”, the “binding to HLA A1 molecules” value (HLA A1 molecules) is listed as “described as HLA A1-binding peptides” and the “binding to HLA A1 molecules” value (HLA A1 molecules; listed as E7 peptide 43) is listed as “can bind to HLA A1 molecules”.

With “PLGRKFLLQAGMHGDTPTLH (Human papillomavirus type 16) [Peptide 43]” the “restimulation of CVLP-stimulated T cells (CD8-positive T cells reactive by γ-interferon expression)” value (CVLP-stimulated T cells [2]) was “effected restimulation of CVLP-stimulated T cells”, the “Epitop-Information (HLA restriction)” value (CVLP-stimulated T cells [2]; Table 2) was “HLA A1 restr” and the “Epitop-Information (epitope type)” value (CVLP-stimulated T cells [2]; Table 2) was “cytotoxic epitope”.
